Values quoted from earlier work in patent US10350275B2, “Methods of cytotoxic gene therapy to treat tumors” (Advantagene, Inc., priority 2013, dated 2019).

System: tumors
Conditions: monotherapy; Senzer et al 2009

Anti-CTLA-4: Immune checkpoint inhibitor antibody; Ipilimumab (anti-CTLA-4) approved for metastatic melanoma
complete and partial responses, share of subjects: about 10.9%
